{
  "source": "patent US7320972B2",
  "about": "“4-Biarylyl-1-phenylazetidin-2-ones” (Microbia, Inc., priority 2003, dated 2008)",
  "data": [
    {"tested_on": "cholesterol absorption (serum 3H-cholesterol)", "assay": "In Vivo Assay of Hypolipidemic Agents using the Rat Cholesterol Absorption Model", "set-up": "species or system Sprague-Dawley rats", "settings": "peroral, 0.1 mg/kg (footnote 5), serum 3H-cholesterol vs vehicle control", "procedure": "(§1) In Vivo Assay of Hypolipidemic Agents using the Rat Cholesterol Absorption Model. This model is based on models described by Burnett et al (2002), Bioorg. Med. Chem. Lett. 2002 Feb. 11;12(3):315-8 and J. Lipid Res. 1999 October;40(10):1747-57. Female Sprague-Dawley rats weighing 150-250 g are separated into groups of […] and fasted overnight. The animals (4-6/group) are dosed perorally with 300 μL test compounds in olive oil or suitable vehicle. Thirty minutes later, 3-5 microCuries ^3H-cholesterol per rat are delivered perorally in 300 μL olive oil. After three hours, 200 μL serum is collected, vortexed with scintillation fluid, and measured for radioactivity in a scintillation counter. Percent inhibition is defined as 100*(1−Ctest/Cctrl), where Ctest and Cctl refer to ^3H levels in serum for the test compound and for the vehicle only control, respectively. Percent inhibition values are reported for a fixed dose. The ED50 is the dose at which the half-maximal effect on serum ^3H levels is observed for a given test compound.\n(§2) Representative compounds of the invention were tested in the Rat Cholesterol Absorption model above.", "values": [
      {"smiles": "O=C1[C@H](CC[C@H](O)c2ccc(F)cc2)[C@@H](c2ccc(-c3cccc([C@@H]4O[C@H](CO)[C@@H](O)[C@H](O)[C@H]4O)c3)cc2O)N1c1ccccc1", "note": "[Example 65, (1S)-1,5-Anhydro-1-(4′-{(2S,3R)-3-[(3S)-3-(4-fluorophenyl)-3-hydroxypropyl]-4-oxo-1-phenylazetidin-2-yl}-3′-hydroxybiphenyl-3-yl)-D-glucitol]", "% inhibition at 0.1 mg/kg": "60^5%"}
    ]},
    {"tested_on": "cholesterol absorption (serum 3H-cholesterol)", "assay": "In Vivo Assay of Hypolipidemic Agents using the Rat Cholesterol Absorption Model", "set-up": "species or system Sprague-Dawley rats", "settings": "peroral, 5 mg/kg (footnote 3), serum 3H-cholesterol vs vehicle control", "procedure": "as §1, §2", "values": [
      {"smiles": "O=C1[C@H](CC[C@H](O)c2ccc(F)cc2)[C@@H](c2ccc(-c3cccc(P(=O)(O)O)c3)cc2O)N1c1ccccc1", "note": "[Example 61, (4′-{(2S,3R)-3-[(3S)-3-(4-Fluorophenyl)-3-hydroxypropyl]-4-oxo-1-phenylazetidin-2-yl}-3′-hydroxybiphenyl-3-yl)phosphonic Acid]", "% inhibition at 5 mg/kg": "58^3%"}
    ]},
    {"tested_on": "cholesterol absorption (serum 3H-cholesterol)", "assay": "In Vivo Assay of Hypolipidemic Agents using the Rat Cholesterol Absorption Model", "set-up": "species or system Sprague-Dawley rats", "settings": "peroral, 10 mg/kg (footnote 1), serum 3H-cholesterol vs vehicle control", "procedure": "as §1, §2", "values": [
      {"smiles": "O=C1[C@H](CC[C@H](O)c2ccc(F)cc2)[C@@H](c2ccc(-c3ccccc3)cc2)N1c1ccc(F)cc1", "note": "[Example 3, (3R,4S)-4-Biphenyl-4-yl-1-(4-fluorophenyl)-3-[(3S)-3-(4-fluorophenyl)-3-hydroxypropyl]azetidin-2-one]", "% inhibition at 10 mg/kg": "15^1%"},
      {"smiles": "CC(=O)Nc1cccc(-c2ccc([C@@H]3[C@@H](CC[C@H](O)c4ccc(F)cc4)C(=O)N3c3ccc(F)cc3)cc2)c1", "note": "[Example 26, N-(4′-{(2S,3R)-1-(4-fluorophenyl)-3-[(3S)-3-(4-fluorophenyl)-3-hydroxypropyl]-4-oxoazetidin-2-yl}biphenyl-3-yl)acetamide]", "% inhibition at 10 mg/kg": "76^1%"}
    ]},
    {"tested_on": "cholesterol absorption (serum 3H-cholesterol)", "assay": "In Vivo Assay of Hypolipidemic Agents using the Rat Cholesterol Absorption Model", "set-up": "species or system Sprague-Dawley rats", "settings": "po, peroral, 1 mg/kg, serum 3H-cholesterol 3 h after cholesterol dose, vs vehicle control", "procedure": "as §1, §2", "units": {"inhibition in vivo at 1 mg/kg": "%"}, "values": [
      {"smiles": "O=C1[C@H](CC[C@H](O)c2ccc(F)cc2)[C@@H](c2ccc(-c3cccc([C@@H]4O[C@@H](CO)[C@H](O)[C@@H](O)[C@@H]4O)c3)cc2)N1c1ccc(F)cc1", "note": "[Example 113, (1S)-1,5-anhydro-1-(4′-{(2S,3R)-1-(4-fluorophenyl)-3-[(3S)-3-(4-fluorophenyl)-3-hydroxypropyl]-4-oxoazetidin-2-yl}biphenyl-3-yl)-L-glucitol]", "inhibition in vivo at 1 mg/kg": 67},
      {"smiles": "CSc1cccc(-c2ccc([C@@H]3[C@@H](CC[C@H](O)c4ccc(F)cc4)C(=O)N3c3ccc(F)cc3)cc2)c1", "note": "[Example 82, (3R,4S)-1-(4-fluorophenyl)-3-[(3S)-3-(4-fluorophenyl)-3-hydroxypropyl]-4-[3′-(methylthio)biphenyl-4-yl]azetidin-2-one]", "inhibition in vivo at 1 mg/kg": 28},
      {"smiles": "O=C(O)c1cccc(-c2ccc([C@@H]3[C@@H](CC[C@H](O)c4ccc(F)cc4)C(=O)N3c3ccc(F)cc3)cc2)c1", "note": "[Example 21, 4′-{(2S,3R)-1-(4-fluorophenyl)-3-[(3S)-3-(4-fluorophenyl)-3-hydroxypropyl]-4-oxoazetidin-2-yl]biphenyl-3-carboxylic acid]", "inhibition in vivo at 1 mg/kg": 68},
      {"smiles": "O=C1[C@H](CC[C@H](O)c2ccc(F)cc2)[C@@H](c2ccc(Br)cc2)N1c1ccccc1", "note": "[Example 46, (3R,4S)-4-(4-Bromophenyl)-3-[(3S)-3-(4-fluorophenyl)-3-hydroxypropyl]-1-phenylazetidin-2-one]", "inhibition in vivo at 1 mg/kg": 30},
      {"smiles": "Cc1cc(-c2ccc([C@@H]3[C@@H](CC[C@H](O)c4ccc(F)cc4)C(=O)N3c3ccc(F)cc3)cc2)ccc1F", "note": "[Example 94, (3R,4S)-4-(4′-fluoro-3′-methylbiphenyl-4-yl)-1-(4-fluorophenyl)-3-[(3S)-3-(4-fluorophenyl)-3-hydroxypropyl]azetidin-2-one]", "inhibition in vivo at 1 mg/kg": 30},
      {"smiles": "O=C1[C@H](CC[C@H](O)c2ccc(F)cc2)[C@@H](c2ccc(-c3cccc(P(=O)(O)O)c3)cc2)N1c1ccccc1", "note": "[Example 122, (4′-{(2S,3R)-3-[(3S)-3-(4-fluorophenyl)-3-hydroxypropyl]-4-oxo-1-phenylazetidin-2-yl}biphenyl-3-yl)phosphonic Acid]", "inhibition in vivo at 1 mg/kg": 67},
      {"smiles": "O=C1[C@H](CCC(O)c2ccc(F)cc2)[C@@H](c2ccc(-c3cccc(S(=O)(=O)O)c3)cc2O)N1c1ccccc1", "note": "(stereo partly drawn) [Example 53, Sodium 4′-{(2S,3R)-3-[(3S/R)-3-(4-fluorophenyl)-3-hydroxypropyl]-4-oxo-1-phenylazetidin-2-yl}-3′-hydroxybiphenyl-3-sulfonate]", "inhibition in vivo at 1 mg/kg": 78},
      {"smiles": "O=C1[C@H](CC[C@H](O)c2ccc(F)cc2)[C@@H](c2ccc(-c3cc(O)cc(O)c3)cc2)N1c1ccc(F)cc1", "note": "[Example 114, (3R,4S)-4-(3′,5′-dihydroxybiphenyl-4-yl)-1-(4-fluorophenyl)-3-[(3S)-3-(4-fluorophenyl)-3-hydroxypropyl]azetidin-2-one]", "inhibition in vivo at 1 mg/kg": 72},
      {"smiles": "O=C1[C@H](CC[C@H](O)c2ccc(F)cc2)[C@@H](c2ccc(-c3ccc(O)cc3)cc2O)N1c1ccccc1", "note": "[Example 125, (3R,4S)-4-(3,4′-dihydroxybiphenyl-4-yl)-3-[(3S)-3-(4-fluorophenyl)-3-hydroxypropyl]-1-phenylazetidin-2-one]", "inhibition in vivo at 1 mg/kg": 64},
      {"smiles": "O=C(O)Cc1ccc(-c2ccc([C@@H]3[C@@H](CC[C@H](O)c4ccc(F)cc4)C(=O)N3c3ccc(F)cc3)cc2)cc1", "note": "[Example 88, (4′-{(2S,3R)-1-(4-fluorophenyl)-3-[(3S)-3-(4-fluorophenyl)-3-hydroxypropyl]-4-oxoazetidin-2-yl}biphenyl-4-yl)acetic Acid]", "inhibition in vivo at 1 mg/kg": 30},
      {"smiles": "O=C1[C@H](CC[C@H](O)c2ccc(F)cc2)[C@@H](c2ccc(-c3ccc4c(c3)OCCO4)cc2)N1c1ccc(F)cc1", "note": "[Example 87, (3R,4S)-4-[4-(2,3-dihydro-1,4-benzodioxin-6-yl)phenyl]-1-(4-fluorophenyl)-3-[(3S)-3-(4-fluorophenyl)-3-hydroxypropyl]azetidin-2-one]", "inhibition in vivo at 1 mg/kg": 59},
      {"smiles": "CCOc1cccc(-c2ccc([C@@H]3[C@@H](CC[C@H](O)c4ccc(F)cc4)C(=O)N3c3ccc(F)cc3)cc2)c1", "note": "[Example 100, (3R,4S)-4-(3′-ethoxybiphenyl-4-yl)-1-(4-fluorophenyl)-3-[(3S)-3-(4-fluorophenyl)-3-hydroxypropyl]azetidin-2-one]", "inhibition in vivo at 1 mg/kg": 54},
      {"smiles": "O=C(O)c1cc(-c2ccc([C@@H]3[C@@H](CC[C@H](O)c4ccc(F)cc4)C(=O)N3c3ccc(F)cc3)cc2)ccc1O", "note": "[Example 106, 4′-{(2S,3R)-1-(4-fluorophenyl)-3-[(3S)-3-(4-fluorophenyl)-3-hydroxypropyl]-4-oxoazetidin-2-yl}-4-hydroxybiphenyl-3-carboxylic Acid]", "inhibition in vivo at 1 mg/kg": 66},
      {"smiles": "CCCOc1cccc(-c2ccc([C@@H]3[C@@H](CC[C@H](O)c4ccc(F)cc4)C(=O)N3c3ccc(F)cc3)cc2)c1", "note": "[Example 103, (3R,4S)-1-(4-fluorophenyl)-3-[(3S)-3-(4-fluorophenyl)-3-hydroxypropyl]-4-(3′-propoxybiphenyl-4-yl)azetidin-2-one]", "inhibition in vivo at 1 mg/kg": 21},
      {"smiles": "O=C1[C@H](CC[C@H](O)c2ccc(F)cc2)[C@@H](c2ccc(-c3cccc(B(O)O)c3)cc2)N1c1ccccc1", "note": "[Example 59, (4′-{(2S,3R)-3-[(3S)-3-(4-Fluorophenyl)-3-hydroxypropyl]-4-oxo-1-phenylazetidin-2-yl}biphenyl-3-yl)boronic acid]", "inhibition in vivo at 1 mg/kg": 70},
      {"smiles": "CS(=O)(=O)c1cccc(-c2ccc([C@@H]3[C@@H](CC[C@H](O)c4ccc(F)cc4)C(=O)N3c3ccccc3)c(O)c2)c1", "note": "[Example 123, (3R,4S)-3-[(3S)-3-(4-fluorophenyl)-3-hydroxypropyl]-4-[3-hydroxy-3′-(methylsulfonyl)biphenyl-4-yl]-1-phenylazetidin-2-one]", "inhibition in vivo at 1 mg/kg": 72},
      {"smiles": "CC(C)Oc1cccc(-c2ccc([C@@H]3[C@@H](CC[C@H](O)c4ccc(F)cc4)C(=O)N3c3ccc(F)cc3)cc2)c1", "note": "[Example 105, (3R,4S)-1-(4-fluorophenyl)-3-[(3S)-3-(4-fluorophenyl)-3-hydroxypropyl]-4-(3′-isopropoxybiphenyl-4-yl)azetidin-2-one]", "inhibition in vivo at 1 mg/kg": 15},
      {"smiles": "COc1cccc(-c2ccc([C@@H]3[C@@H](CC[C@H](O)c4ccc(F)cc4)C(=O)N3c3ccc(F)cc3)cc2)c1", "note": "[Example 12, (3R,4S)-1-(4-fluorophenyl)-3-[(3S)-3-(4-fluorophenyl)-3-hydroxypropyl]-4-(3′-methoxybiphenyl-4-yl)azetidin-2-one]", "inhibition in vivo at 1 mg/kg": 70},
      {"smiles": "CCOc1ccc(-c2ccc([C@@H]3[C@@H](CC[C@H](O)c4ccc(F)cc4)C(=O)N3c3ccc(F)cc3)cc2)cc1", "note": "[Example 101, (3R,4S)-4-(4′-ethoxybiphenyl-4-yl)-1-(4-fluorophenyl)-3-[(3S)-3-(4-fluorophenyl)-3-hydroxypropyl]azetidin-2-one]", "inhibition in vivo at 1 mg/kg": 41},
      {"smiles": "O=C1[C@H](CC[C@H](O)c2ccc(F)cc2)[C@@H](c2ccc(-c3ccc(P(=O)(O)O)cc3)cc2O)N1c1ccccc1", "note": "[Example 127, (4′-{(2S,3R)-3-[(3S)-3-(4-Fluorophenyl)-3-hydroxypropyl]-4-oxo-1-phenylazetidin-2-yl}-3′-hydroxybiphenyl-4-yl)phosphonic Acid]", "inhibition in vivo at 1 mg/kg": 58},
      {"smiles": "Nc1ccc(-c2ccc([C@@H]3[C@@H](CC[C@H](O)c4ccc(F)cc4)C(=O)N3c3ccc(F)cc3)cc2)cc1", "note": "[Example 28, (3R,4S)-4-(4′-aminobiphenyl-4-yl)-1-(4-fluorophenyl)-3-[(3S)-3-(4-fluorophenyl)-3-hydroxypropyl]azetidin-2-one]", "inhibition in vivo at 1 mg/kg": 56},
      {"smiles": "O=C1[C@H](CC[C@H](O)c2ccc(F)cc2)[C@@H](c2ccc(-c3cccc(S)c3)cc2)N1c1ccc(F)cc1", "note": "[Example 119, (3R,4S)-1-(4-fluorophenyl)-3-[(3S)-3-(4-fluorophenyl)-3-hydroxypropyl]-4-(3′-mercaptobiphenyl-4-yl)azetidin-2-one]", "inhibition in vivo at 1 mg/kg": 56}
    ]}
  ]
}
